Publication PMC11989212, “Experimental Conditions to Retrieve Intrinsic Cooperativity α Directly from Single Binding Assay Data Exemplified by the Ternary Complex Formation of FKBP12, MAPRE1 and Macrocyclic Molecular Glues” (International Journal of Molecular Sciences, 2025)
Values joined by “and” are separate entries in the source; they are usually repeats but may differ in a detail not shown here. Identical values can stand only once. Like-named read-outs stand apart in the source and are kept apart here.

How the values were obtained:
[1] = molecular target: T1, MAPRE1 in the presence of FKBP12 (Homo sapiens, UniProt P62942+Q15691); assay: Spectral shift target engagement assay, binding to MAPRE1 in the presence of 10 μM FKBP12 (ternary); settings: for EC50: 5 nM MAPRE1-NHS, 10 μM FKBP12, read-out: EC50 of the %Tbound, ternary curve; for Ratio [Ctot]/KC,1: [Ctot] = 10 μM FKBP12; for 100 × (EC50 %Tbound ternary − 0.5 [Ttot] − KT,2)/KT,2: difference between EC50 of the %Tbound, ternary curve and KT,2; for 100 × (EC50 %Tbound ternary − 0.5 [Ttot] − KT,2)/KT,2 / Intrinsic cooperativity α: [Ttot] = 5 nM; for Intrinsic cooperativity α: from KC,1, KT,1 and EC50 of the %Tbound, ternary curve with the mathematical model, [Ctot] = 10,000 nM; for Kd: ternary Kd, model-based ([CL] at [Ltot] = EC50), read-out: KT,2
T1 construct: His-tag (N)
T1 sequence (P62942 whole entry, one chain of several): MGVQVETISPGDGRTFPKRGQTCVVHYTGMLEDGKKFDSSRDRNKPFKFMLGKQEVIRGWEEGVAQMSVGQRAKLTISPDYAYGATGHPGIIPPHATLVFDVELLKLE
Source text: (§1) Our method of choice is the spectral shift method, which monitors binding events on the target isothermally and in equilibrium via an environment-sensitive near-infrared fluorophore. In the case of target engagement, either the proximity of the ligand towards the dye or structural changes occurring in the target as a result of binding lead to a change in the chemical environment of the fluorophore. Those changes affect the physiochemical properties of the reporter fluorophore and translate into either blue or red shifts (or peak broadening) of emission peaks upon ligand binding, which can be sensitively monitored by simultaneously recording the fluorescence at two wavelengths (i.e., at 650 nm and 670 nm). Calculating the ratio between the two fluorescence channels then allows to monitor subtle emission shifts that occur as a result of target engagement. Affinity measurements can then be performed by recording the spectral shift as a function of ligand concentration.
(§2) Binding study through MAPRE1: MAPRE1 was labeled via lysines using an NHS-conjugated dye. The final concentration of MAPRE1NHS (referring to [Ttot]) was 5 nM. Compounds could be titrated up to a concentration of 200 μM (referring to [Ltot]). […] However more accuracy could only be achieved at higher ligand concentrations—ideally at full target saturation. However, this was experimentally infeasible due to assay conditions (i.e., the requirement of maintaining a certain DMSO concentration or avoiding solubility issues of the ligand). Although the determined KT,1 values of binding to MAPRE1 are only approximations, their relative ranking reflects the underlying differences in the affinity of the ligands L to MAPRE1. Performing these experiments in duplicates confirmed the high signal-to-noise ratio, i.e., there was no significant deviation between the two curves, indicating a high accuracy of the interpolated EC50 values. Due to the low [Ttot] = 5 nM, this value coincides with KT,1 (1.8 mM − 0.005 mM/2 ≈ 1.8 mM). […] Consequently, KT,2 corresponds to 173 nM and not 177.5 nM.
(§3) His-tagged FKBP12 was labeled using the His-Tag Labeling Kit RED-tris-NTA 2nd Generation (MO-L018; NanoTemper Technologies GmbH). The affinity between NTA dye and the His-tag of FKBP12 was determined as 7 nM. MAPRE1 was labeled using the Protein Labeling Kit RED-NHS 2nd Generation (MO-L011; NanoTemper Technologies GmbH). In brief, 10 µM of MAPRE1 was incubated with a 3-fold molar excess of fluorophore for 30 min. The unreacted fluorophore was removed by performing a size exclusion purification (B-column). Collecting the protein fraction yielded 1.8 µM labeled MAPRE1, with a degree of labeling of 0.8, as determined on a Nanodrop.
(§4) A 1:2 dilution series of all compounds (starting from the 10 mM stock concentration) was prepared in pure DMSO. Each concentration was diluted 25-fold with assay buffer (20 mM HEPES, pH 7.4, 150 mM NaCl, 1 mM DTT (all from Carl Roth, Karlsruhe, Germany), and 0.01% Pluronic F-127 (Sigma Aldrich, Taufkirchen, Germany)). Next, 10 µL from each of the prepared ligand dilutions was transferred into an empty well on a Dianthus Microwell Plate (DI-P001A). Another 10 µL of 2-fold concentrated labeled protein (either in the absence or the presence of 20 µM counter protein, both in assay buffer then yielded the final assay concentrations. Interaction measurements were prepared in duplicates for each condition. For binary interactions of compounds with MAPRE1, a final target concentration of 5 nM and a highest ligand concentration of 50 µM was prepared. For ternary interactions of compounds and MAPRE1 in the presence of 10 µM unlabeled FKBP12, the highest ligand concentration was increased to 200 µM, the highest concentration achievable while maintaining a constant 2% DMSO concentration. For all interactions measured via FKBP12, the target was prepared at a final concentration of 40 nM, supplemented with 5 nM NTA fluorophore. […]

[2] = molecular target: FKBP12 in the presence of MAPRE1 (Homo sapiens, UniProt P62942+Q15691); assay: Spectral shift target engagement assay, binding to FKBP12 in the presence of 10 μM MAPRE1 (ternary)
Sequence of FKBP12 in the presence of MAPRE1 (P62942 whole entry, one chain of several): as above
Source text: as §1
(§5) Binding studies through FKBP12: To monitor the binding of R,--SLF-11 by the stronger binding FKBP12 in the absence and in the presence of 10 μM MAPRE1 via %Cbound, binary and %Cbound, ternary, respectively, the concentration of reversibly NTA-labeled FKBP12 was limited to [Ctot] = 40 nM. […] In contrast to the experimental setup in the previous two binding experiments with monitoring through the weaker binding protein MAPRE1, where the applied protein concentrations were optimally chosen, this is not the case for the binding experiment through the stronger binder FKBP12. First of all, the applied excess of T with [Ttot] = 10 μM is roughly 20000-fold off of the proposed 100 times KT,1 threshold, which would correspond to 180 mM. Only under such excess conditions of T can the equilibrium of forming TL under the constraint that all ligand L is bound to T be reached to ensure that [Ltot] approaches the “ligand” concentration [TL]. […] If KC,2 is sufficiently high, the 20 nM deviation to correct for the protein concentration could be neglected. However, the resulting calculated value for KC,2 is 0.023 nM, accounting for the cooperativity α = 10,405 and KC,1 = 234 nM as derived by the MAPRE1 experiment. This value is far below the applied protein concentration of [Ctot] = 40 nM and makes it infeasible to estimate KC,2 from the EC50 of the %Cbound, ternary curve. Consequently, the EC50 shifts, meaning the apparent cooperativity, from monitoring the binding by the stronger binding protein C are diverging from the underlying intrinsic cooperativity α. […] The deviation of calculated (254 nM/24.2 nM = 10.5) and measured apparent cooperativity (254 nM/66 nM = 3.8) can be explained by a negative cooperativity induced by the His6-NTA tag of FKBP12. Studies to lower [Ctot] and identify a better position for the spectral shift tag on FKBP12 are ongoing (Figure 6a).
as §3
(§6) A 1:2 dilution series of all compounds (starting from the 10 mM stock concentration) was prepared in pure DMSO. Each concentration was diluted 25-fold with assay buffer (20 mM HEPES, pH 7.4, 150 mM NaCl, 1 mM DTT (all from Carl Roth, Karlsruhe, Germany), and 0.01% Pluronic F-127 (Sigma Aldrich, Taufkirchen, Germany)). Next, 10 µL from each of the prepared ligand dilutions was transferred into an empty well on a Dianthus Microwell Plate (DI-P001A). […]

FKBP12 [3] = molecular target: T2, FKBP12 (Homo sapiens, UniProt P62942); assay: Spectral shift target engagement assay, binary binding to FKBP12; settings: 40 nM FKBP12-NTA; for EC50: no MAPRE1, read-out: EC50 of the %Cbound, binary curve; for Kd: KC,1 = EC50 − [Ctot]/2
T2 sequence (P62942 whole entry, species assumed): as the sequence (P62942 whole entry, one chain of several) above
Source text: as §1, §5, §3, §6

[4] = test system: FKBP12:R,S-SLF-X:MAPRE1 ternary complex; parameters: method as in PMID 40059881; settings: TR-FRET proximity assay, reported earlier; cited from earlier work
MAPRE1 = molecular target: T3, MAPRE1 (Homo sapiens, UniProt Q15691); assay: Spectral shift target engagement assay, binary binding to MAPRE1; settings: 5 nM MAPRE1-NHS, interpolated; for EC50: no FKBP12, read-out: EC50 of the %Tbound, binary curve; for Kd: approximation, read-out: Spectral Shift Binary MAPRE1 KT,1
T3 construct: His-tag (N)
T3 sequence (Q15691 1-268): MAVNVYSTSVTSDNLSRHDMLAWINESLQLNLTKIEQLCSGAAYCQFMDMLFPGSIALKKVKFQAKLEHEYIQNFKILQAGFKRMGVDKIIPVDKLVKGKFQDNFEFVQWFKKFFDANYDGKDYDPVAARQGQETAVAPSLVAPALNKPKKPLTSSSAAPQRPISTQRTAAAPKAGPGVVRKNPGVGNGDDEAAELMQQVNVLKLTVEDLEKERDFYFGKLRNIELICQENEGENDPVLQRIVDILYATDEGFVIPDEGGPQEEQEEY
Source text: as §1, §2, §3, §4

FKBP12 [5] = molecular target: T2, FKBP12; parameters: method as in PMID 40059881; settings: TR-FRET competitive binding assay from previous work; listed as R,R-SLF-1d; read-out: EC50_FKBP12; cited from earlier work
[6] = molecular target: His-tagged FKBP12, labeled with RED-tris-NTA dye (UniProt P62942); assay: other fluorescence titration; spectral shift, no compound: 40 nM labeled FKBP12 vs. 10,000 nM MAPRE1
Sequence of His-tagged FKBP12, labeled with RED-tris-NTA dye (P62942 whole entry): as the sequence (P62942 whole entry, one chain of several) above

[7] = 40 nM FKBP12-NTA, 10 μM MAPRE1, read-out: EC50 of the %Cbound, ternary curve (measured)
[8] = calculated with the model using α from MAPRE1 binding, read-out: calc EC50 of the %Cbound, ternary curve

| Molecule | EC50 [1] | Ratio [Ctot]/KC,1 [1] | 100 × (EC50 %Tbound ternary − 0.5 [Ttot] − KT,2)/KT,2 [1] | Intrinsic cooperativity α [1] | Kd [1] | EC50 [2, 7] | EC50 (FKBP12 [3]) | Kd (FKBP12 [3]) | TR-FRET Recruitment Assay (%Amax) [4] | EC50 (MAPRE1) | Kd (MAPRE1) | EC50 (FKBP12 [5]) | Kd [6] | EC50 [2, 8] |
| --- | --- | --- | --- | --- | --- | --- | --- | --- | --- | --- | --- | --- | --- | --- |
| C=C1CCN2C(=O)COc3cccc(c3)C(CCc3ccc(OC)c(OC)c3)OC(=O)C3CCCCN3C(=O)C(=O)C(C)(C)COC(=O)C3(CC3)NC(=O)C2C1 (stereo not drawn) [R,--SLF-11] | 0.18 µM | 41 | 2.6% | 10,405 | 0.173 µM | 0.066 µM | 0.254 µM | 0.234 µM | 350% | – | – | – | – | – |
| C=C1CCN2C(=O)COc3cccc(c3)C(CCc3ccc(OC)c(OC)c3)OC(=O)C3CCCCN3C(=O)C(=O)C(C)(C)COC(=O)C(C)(C)NC(=O)C2C1 (stereo not drawn) [R,--SLF-10] | 0.377 µM | 93 | 1.2% | 5405 | 0.37 µM | 0.04 µM | 0.128 µM | 0.108 µM | 135% | – | – | – | – | – |
| C=C1CCN2C(=O)COc3cccc(c3)C(CCc3ccc(OC)c(OC)c3)OC(=O)C3CCCCN3C(=O)C(=O)C(C)(C)COC(=O)C(C)NC(=O)C2C1 (stereo not drawn) [S,S-SLF-1d] | > 1400 µM | 1428 and 1429 | – | No positive cooperativity | – | 0.029 µM | 0.027 µM | 0.007 µM | 0% | > 200 µM | > 200 µM | 0.72 µM | – | – |
| unlabeled MAPRE1 (from UniProt Q15691 1-268) (natural protein) | – | – | – | – | – | – | – | – | – | – | – | – | > 100 µM | – |
| C=C1CCN2C(=O)COc3cccc(c3)C(CCc3ccc(OC)c(OC)c3)OC(=O)C3CCCCN3C(=O)C(=O)C(C)(C)COC(=O)C(C(F)(F)F)NC(=O)C2C1 (stereo not drawn) [R,S-SLF-8] | 1.07 µM | 92 | 1.1% | 1509 | 1.06 µM | 0.065 µM | 0.129 µM | 0.109 µM | 27% | > 200 µM | > 200 µM | – | – | 0.031 µM |
| C=C1CCN2C(=O)COc3cccc(c3)C(CCc3ccc(OC)c(OC)c3)OC(=O)C3CCCCN3C(=O)C(=O)C(C)(C)COC(=O)C(CO)NC(=O)C2C1 (stereo not drawn) [R,S-SLF-6] | 0.114 µM | 222 | 0% | 4484 | ~0.111 µM and 0.111 µM | 0.024 µM | 0.065 µM | 0.045 µM | 255% | > 200 µM | > 200 µM | – | – | 0.021 µM |
| C=C1CCN2C(=O)COc3cccc(c3)C(CCc3ccc(OC)c(OC)c3)OC(=O)C3CCCCN3C(=O)C(=O)C(C)(C)COC(=O)C(CCOC)NC(=O)C2C1 (stereo not drawn) [R,S-SLF-9] | – | – | – | – | – | – | – | – | 51% | – | – | – | – | – |
| C=C1CCN2C(=O)COc3cccc(c3)C(CCc3ccc(OC)c(OC)c3)OC(=O)C3CCCCN3C(=O)C(=O)C(C)(C)COC(=O)C(CC)NC(=O)C2C1 (stereo not drawn) [R,S-SLF-3] | 0.827 µM | 152 | 0.8% | 2200 | 0.818 µM | 0.049 µM | 0.086 µM | 0.066 µM | 93% | > 200 µM | > 200 µM | – | – | 0.025 µM |
